SMILES strings stand for the structures. In brackets after ≈: the same amount, converted by molar mass.

The results in this text go back to PubChem BioAssay AID1996.

The conditions of the series: buffer; pH 7.4; 200.0 µM.
As usually defined, the kinetic solubility is solubility judged after dilution from a stock solution rather than from solid. As to `COC(=O)c1sc(SC)c2c1CC(C)(C)C/C2=N/O`, the kinetic solubility is below 0.6 µg/mL.
The same measure for `O=C(NCC1CC1(Cl)Cl)Nc1ccc(Cl)c(Cl)c1` (stereo unspecified): 9.1 µg/mL (≈ 27.7 µM); for `Cc1cc(-c2ccccc2)nc(SCc2ccc(C(=O)O)cc2)n1`: 43.5 µg/mL (≈ 129 µM); for `CC1CCCN(C2(O)C(=O)Nc3c(C(F)(F)F)cccc32)C1` (stereo unspecified): above 47.1 µg/mL.
Then `Cc1cc(=O)oc2cc(OCC(=O)NC3CCCC3)ccc12`, with 22.9 µg/mL (≈ 76 µM); and `COc1ccc(C(=O)CCC(=O)NC2=NCCS2)cc1`, with 14.6 µg/mL (≈ 49.9 µM).
The same measure for `CC1CCN(C(=O)c2ccc(N3C(=O)C4CCC(C)CC4C3=O)cc2)CC1` (stereo unspecified): 48.4 µg/mL (≈ 131 µM); for `CCOC(=O)C1(Cc2ccccc2)CCCN(Cc2ccncc2)C1` (stereo unspecified): 31.3 µg/mL (≈ 92.5 µM).
Take `COc1ccc(NC(=O)/C=C/c2ccc(OC)c(OC)c2)cn1`: the solubility (kinetic) was determined as 11.3 µg/mL (≈ 35.9 µM).
`O=C(O)CCn1c(Cc2ccccc2)nc2ccccc21`: the kinetic solubility was above 42 µg/mL.
The same measure for `COC(CN(C)C(C(=O)NC1CCCCC1)c1ccccc1)OC` (stereo unspecified): above 50.2 µg/mL.
In turn, `Cn1c(SCc2ccccc2C#N)nnc1-c1ccncc1` came in with a solubility (kinetic) above 46.1 µg/mL.
The same measure for `N=C(N=C(N)N)N1CCc2ccccc21`: above 30.5 µg/mL; for `O=C(Nc1cccc(O)c1)c1cc(-c2ccccc2Cl)on1`: 0.8 µg/mL (≈ 2.54 µM); for `O=C(NCc1ccccc1F)C1CCCN(c2cnccn2)C1` (stereo unspecified): 44.7 µg/mL (≈ 142 µM).
The same measure for `CC(C)(C)CC(=O)Nc1ccc(-c2cn3cccnc3n2)cc1`: 40.3 µg/mL (≈ 131 µM); for `O=C(NCc1ccc2c(c1)OCO2)NC12CC3CC(CC(C3)C1)C2`: 1.3 µg/mL (≈ 3.96 µM).
Then `COc1ccc(C=O)cc1CN1C(=O)c2ccccc2C1=O`, with 36.8 µg/mL (≈ 125 µM).
In turn, `CCCN(CCC)Cc1cc(=O)oc2cc3c(cc12)CCC3` came in with a solubility (kinetic) below 0.6 µg/mL.
`CN=C(Nc1ccc(C(=O)OC)s1)c1ccccc1` registered a kinetic solubility of 29.6 µg/mL (≈ 108 µM).
In turn, `C=CCN1C(=O)C(Cc2ccccc2Cl)SC1=Nc1ccc(C(=O)O)cc1` (stereo unspecified) yielded a kinetic solubility above 60.1 µg/mL.
The same measure for `Cn1cc(Cl)cc(C(=O)Nc2ccccc2)c1=O`: 2 µg/mL (≈ 7.61 µM).
Then `C=CCn1c(C)cc(C(=O)COC(=O)CCc2cc(OC)c(OC)c(OC)c2)c1C`, with 31.8 µg/mL (≈ 76.5 µM); and `Cc1cc(C(=O)O/N=C(\N)c2ccncc2)ccc1[N+](=O)[O-]`, with 25.1 µg/mL (≈ 83.6 µM).
The same measure for `CC1CCN(CCc2nc3cc(NC(=O)C(C)C)ccc3n2C)CC1`: 36.7 µg/mL (≈ 107 µM).
Take `Cc1cccnc1NC(=O)c1ccc2c(c1)OCCO2`: the solubility (kinetic) is above 40.5 µg/mL.
Then `O=C(Nc1ccccc1)/C(=C\c1ccc(F)cc1)NC(=O)c1ccco1`, with 2 µg/mL (≈ 5.71 µM).
Then `Cc1ccc(OCC(O)CN2CCOCC2)cc1C.Cl` (stereo unspecified), with above 45.3 µg/mL; and `COc1ccc(CNC(=O)C2CC(C)=C(C)CC2C(=O)O)cc1OC` (stereo unspecified), with above 52.1 µg/mL; and `O=C(O)c1ccccc1-c1ccccc1C(=O)NCc1ccccc1F`, with 38.4 µg/mL (≈ 110 µM).
The same measure for `Cl.NCCSC1CC(=O)N(c2ccc(F)cc2)C1=O` (stereo unspecified): 29.5 µg/mL; for `Cc1c(C(=O)c2ccccc2)c2ccccn2c1CCc1ccccn1`: 3.7 µg/mL (≈ 10.9 µM).
`COCCNC(=O)/C(C#N)=C/c1ccc(O)cc1` had a solubility (kinetic) above 36.9 µg/mL.
Then `CCOc1ncccc1C(=O)N(CC)CC(=O)NCc1ccc(F)cc1`, with above 53.9 µg/mL; and `O=C(NC1CCN(Cc2ccc(Cl)cc2Cl)CC1)c1ccccc1`, with 2.3 µg/mL (≈ 6.33 µM); and `COc1cc(C(=O)OCC(=O)Nc2ccc(S(=O)(=O)N3CCCC3)cc2)cc(OC)c1OC`, with 18.1 µg/mL (≈ 37.8 µM).
Then `CCCN1CCc2c(sc3nc(SC)n(-c4ccccc4)c(=O)c23)C1`, with 33.9 µg/mL (≈ 91.2 µM).
Then `COc1cc(CN2CC=C(c3ccc(F)cc3)CC2)cc(OC)c1`, with 10.4 µg/mL (≈ 31.8 µM); and `COc1cccc(CC(=O)Nc2nc3c(s2)C(=O)CC(C)(C)C3)c1`, with 1.8 µg/mL (≈ 5.23 µM); and `O=C(COc1ccc(Br)cc1)NC1CC1`, with above 40.5 µg/mL.
Turning to `Cc1ccc(OCC(=O)O/N=C(\N)c2ccccn2)cc1C`, the solubility (kinetic) worked out at 38.1 µg/mL (≈ 127 µM).
